The numbers were not newly measured in patent US8329742B2, “Macrocyclic compounds useful as pharmaceuticals” (EISAI Co., Ltd., priority 2002, dated 2012), which cites them from elsewhere.

The target in one data set is Map/Erk kinase (MEK) (Homo sapiens, UniProt Q02750).
For data set [1] the following is noted: susceptible to enone isomerization in mouse and human plasma.

Map/Erk kinase (MEK), sequence (Q02750 whole entry): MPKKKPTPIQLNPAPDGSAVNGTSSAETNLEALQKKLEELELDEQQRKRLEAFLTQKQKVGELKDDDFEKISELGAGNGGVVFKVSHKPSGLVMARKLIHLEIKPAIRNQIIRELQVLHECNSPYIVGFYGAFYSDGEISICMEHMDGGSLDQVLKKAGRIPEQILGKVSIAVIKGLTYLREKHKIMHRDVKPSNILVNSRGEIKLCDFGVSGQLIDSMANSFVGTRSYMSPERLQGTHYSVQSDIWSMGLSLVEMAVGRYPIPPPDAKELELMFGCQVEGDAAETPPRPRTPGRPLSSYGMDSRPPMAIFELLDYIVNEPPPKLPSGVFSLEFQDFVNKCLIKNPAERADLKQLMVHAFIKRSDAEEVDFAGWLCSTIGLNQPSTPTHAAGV

For `COc1cc(O)c2c(c1)/C=C/C[C@H](O)[C@H](O)C(=O)/C=C\C[C@H](C)OC2=O` [Compound F152], the “inhibition of Map/Erk kinase (MEK)” value on Map/Erk kinase (MEK) is listed as “inhibit”. The biological stability entry in data set [1] is “biologically unstable”.
